From patent publication US20050119461A1, “Novel receptor, and compounds which bind thereto” (THE UNIVERSITY OF MELBOURNE, priority 1997, published 2005)
Where two headings read alike, the source gives them in different places.

Columns and labels:
Ox receptor [1] = test: Ox receptor binding, [3H]-rilmenidine displacement in human brain homogenates; settings: for Ki / Selectivity Ox/I2: human brain homogenates; for Ki: Table 5, read-out: Receptor Affinities (nM) Ox; for Selectivity Ox/I2: >1 = selectivity for the Ox receptor
Description: Measurement of the affinity and selectivity of such compounds for the a2-adrenoceptor, I2-receptor and Ox receptor binding sites may be carried out by either of two procedures, i.e. ligand displacement studies in membranes of brain and kidney or by autoradiography of brain and kidney sections. In both cases the radioligand is tritiated rilmenidine ([^3H]-RIL).
Male WKY rats are stunned and decapitated. The brains are removed and the forebrain dissected free, then frozen over liquid nitrogen before being stored at −70° C. Human brain cortex samples are obtained within 28 hours of death and frozen over liquid nitrogen before being stored at −70° C. On the day of the measurement the cortex (human or rat) is homogenised in 20 vol ice-cold 50 mM Tris.HCl buffer (pH 7.4) using a Polytron tissue homogeniser. The homogenate is centrifuged at 37000×g for 10 min and the pellet resuspended in 20 vol of fresh buffer and recentrifuged. The pellet is then resuspended in 33 vol of 50 mM Tris.HCl buffer for use in binding assays.
After incubation for 30 min at 25° C., the membranes are recovered by filtration onto Whatman GF/B glass fibre filters presoaked in 1.0% polyethyleneimine. The filters are washed 3 times with cold assay buffer before measurement of bound radioactivity by scintillation counting.

I2-receptor [2] = test: I2-receptor binding, [3H]-idazoxan displacement in human brain homogenates; settings: for Ki: human brain homogenates, Table 5, read-out: Receptor Affinities (nM) I2
I2-receptor [3] = test: I2-receptor binding, [3H]-idazoxan displacement in rat brain homogenates; settings: for Ki: rat brain homogenates, Table 3, read-out: Receptor Affinities (nM) I2; for affinity for the I2-receptor (in words): rat
Description: Male WKY rats are stunned and decapitated.
Brain membranes prepared as above, are incubated in the presence of [^3H]-methoxyidazoxan (52-57 Ci/mmol) 0.5 nM or [^3H]-idazoxan (43-45Ci/mmol) 1.6 nM in Tris.HCl buffer pH 7.4 for α2-adrenoceptor and I2-receptor binding respectively. Inhibition of binding is measured in the presence of increasing amounts of test compound (0.1 nM to 1 mM). Non-specific binding is estimated by addition of 10 μM phentolamine or 100 μM cirazoline respectively. Membrane bound radioactivity is isolated and measured as above by vacuum filtration, washing and scintillation counting. Data is analysed by the “RADLIG” program.

Ox receptor [4] = test: Ox receptor binding, [3H]-rilmenidine displacement in rat brain homogenates; settings: for Ki: read-out: Receptor Affinities (nM) Ox; for affinity for the Ox receptor (in words): rat
Description: Receptor Affinities and Selectivities of Selected Drugs for Ox receptors, α2-adrenoceptors and I2-receptors in Rat Brain Homogenates
In both cases the radioligand is tritiated rilmenidine ([^3H]-RIL).
Male WKY rats are stunned and decapitated. The brains are removed and the forebrain dissected free, then frozen over liquid nitrogen before being stored at −70° C. Human brain cortex samples are obtained within 28 hours of death and frozen over liquid nitrogen before being stored at −70° C. On the day of the measurement the cortex (human or rat) is homogenised in 20 vol ice-cold 50 mM Tris.HCl buffer (pH 7.4) using a Polytron tissue homogeniser. The homogenate is centrifuged at 37000×g for 10 min and the pellet resuspended in 20 vol of fresh buffer and recentrifuged. The pellet is then resuspended in 33 vol of 50 mM Tris.HCl buffer for use in binding assays. Where adrenaline is used in binding assays the buffer also contains 25 μM EDTA and 10 μM pargyline.
After incubation for 30 min at 25° C., the membranes are recovered by filtration onto Whatman GF/B glass fibre filters presoaked in 1.0% polyethyleneimine. The filters are washed 3 times with cold assay buffer before measurement of bound radioactivity by scintillation counting. The binding data are analysed by an iterative non-linear computerised curve fitting program “RADLIG” version 4.0 (McPherson, 1983).

α2-adrenoceptor = α2-adrenoceptor binding, [3H]-methoxyidazoxan displacement in rat brain homogenates; settings: for Ki: rat brain homogenates, Table 4, read-out: Receptor Affinities (nM) α2; for affinity for the α2-adrenoceptor (in words): rat
Description: Male WKY rats are stunned and decapitated. The brains are removed and the forebrain dissected free, then frozen over liquid nitrogen before being stored at −70° C. […] On the day of the measurement the cortex (human or rat) is homogenised in 20 vol ice-cold 50 mM Tris.HCl buffer (pH 7.4) using a Polytron tissue homogeniser. The homogenate is centrifuged at 37000×g for 10 min and the pellet resuspended in 20 vol of fresh buffer and recentrifuged. The pellet is then resuspended in 33 vol of 50 mM Tris.HCl buffer for use in binding assays.

Ox receptor [5] = test: Selectivity data of Table 1 (Ox over alpha2), tissue not stated; type: binding; settings: tissue and species not stated
Text: The term “selectivity” as used herein refers to the selectivity of a compound for the Ox receptor over another receptor in mammalian tissue containing said receptors. The selectivity is the reciprocal of the ratio of the affinities (in nM) for each receptor site. Preferably the tissue is human tissue.
The compounds prepared above are represented in Table 1 below together with selectivity data where available.

[6] = rat brain homogenates, reciprocal of the ratio of affinities, >1 = more selective for Ox site
[7] = human brains, compared with rat

In the case of FC(F)(F)C(NC1=NCCO1)C1CC1 (single isomer, unassigned; (+)) [(+)-S8349], the Ki (Ox receptor [1]) is reported as 268 nM, the “Selectivity Ox/I2” value (Ox receptor [1]) is reported as 49 and the Ki (I2-receptor [2]) is reported as 13000 nM.
For FC(F)(F)C(NC1=NCCO1)C1CC1 (single isomer, unassigned; (-)) [(−)-S8350], the Ki (Ox receptor [1]) was 199 nM, the “Selectivity Ox/I2” value (Ox receptor [1]) was 32 and the Ki (I2-receptor [2]) was 7700 nM.
For C[C@@H](NC1=NCCO1)C1CCCCC1 [(R)-(−)-O504, (R-(−)-2-(1-Cyclohexylethylamino)-oxazoline)], the Ki (I2-receptor [3]) was 56 nM, the “Selectivity Ox/I2” value (Ox receptor [4]) was 1.8 and the “Selectivity Ox/α2” value (Ox receptor [4]) was 18. For the same compound, the Ki (Ox receptor [4]; rat brain homogenates, Table 3) was 31 nM, the Ki (Ox receptor [4]; rat brain homogenates, Table 4) was 32 nM and the Ki (α2-adrenoceptor) was 590 nM. For the same compound, the Ki (Ox receptor [1]) was 300 nM, the “Selectivity Ox/I2” value (Ox receptor [1]) was 9 and the Ki (I2-receptor [2]) was 2700 nM.
For C[C@H](NC1=NCCO1)C1CCCCC1 [(S)-(+)-O504, (S)-(+)-2-(1-Cyclohexylethylamino)-oxazoline], the Ki (I2-receptor [3]) was 707 nM, the “Selectivity Ox/I2” value (Ox receptor [4]) was 6.7 and the “Selectivity Ox/α2” value (Ox receptor [4]) was 1.5. It also gave a Ki (Ox receptor [4]; rat brain homogenates, Table 3) of 106 nM, a Ki (Ox receptor [4]; rat brain homogenates, Table 4) of 20 nM and a Ki (α2-adrenoceptor) of 30 nM. For the same compound, the Ki (Ox receptor [1]) was 180 nM, the “Selectivity Ox/I2” value (Ox receptor [1]) was 12 and the Ki (I2-receptor [2]) was 2190 nM.
For C[C@H](NC1=NCCO1)c1cccc2ccccc12 [(S)-(−)-O506], the Ki (Ox receptor [1]) was 99 nM, the “Selectivity Ox/I2” value (Ox receptor [1]) was 77 and the Ki (I2-receptor [2]) was 7580 nM.
CCC1CCCC(C)C1NC1=NCCO1 (stereo not shown) [BAY-A6781] was tested, and the Ki (Ox receptor [1]) was 215 nM, the “Selectivity Ox/I2” value (Ox receptor [1]) was 38 and the Ki (I2-receptor [2]) was 8250 nM.
c1ccc2nc(C3=NCCN3)ccc2c1 [BU-224, 2-(4,5-dihydroimidaz-2-yl)quinoline] was tested, and the “affinity for the I2-receptor (in words)” value (I2-receptor [3]) was “high affinity (nM)”, the Ki (I2-receptor [3]) was 0.9 nM and the “affinity for the Ox receptor (in words)” value (Ox receptor [4]) was “poor (μM) affinity”. For the same compound, the “Selectivity Ox/α2” value (Ox receptor [4]; [6]) was <0.1, the Ki (Ox receptor [4]; rat brain homogenates, Table 3) was > 100000 nM and the Ki (Ox receptor [4]; rat brain homogenates, Table 4) was > 100000 nM. For the same compound, the “affinity for the α2-adrenoceptor (in words)” value (α2-adrenoceptor) was “poor affinity (μM)”, the Ki (α2-adrenoceptor) was 5480 nM and the Ki (Ox receptor [1]) was 9580 nM. For the same compound, the “Selectivity Ox/I2” value (Ox receptor [1]) was 0.0002 and the Ki (I2-receptor [2]) was 2.2 nM.
For CCC1CCCC(CC)C1NC1=NCCO1 (stereo not shown) [Compound O501], the Ki (I2-receptor [3]) was 6900 nM, the “Selectivity Ox/I2” value (Ox receptor [4]) was 383 and the “Selectivity Ox/α2” value (Ox receptor [4]) was 12. For the same compound, the Ki (Ox receptor [4]; rat brain homogenates, Table 3) was 18 nM, the Ki (Ox receptor [4]; rat brain homogenates, Table 4) was 18 nM and the Ki (α2-adrenoceptor) was 210 nM. The Ki (Ox receptor [1]) was 38 nM, the “Selectivity Ox/I2” value (Ox receptor [1]) was 239 and the Ki (I2-receptor [2]) was 9100 nM.
For c1ccc(C(NC2=NCCO2)c2ccccc2)cc1 [Compound O502], the Ki (I2-receptor [3]) was 1900 nM, the “Selectivity Ox/I2” value (Ox receptor [4]) was 12 and the “Selectivity Ox/α2” value (Ox receptor [4]) was 2.4. For the same compound, the Ki (Ox receptor [4]; rat brain homogenates, Table 3) was 160 nM, the Ki (Ox receptor [4]; rat brain homogenates, Table 4) was 160 nM and the Ki (α2-adrenoceptor) was 380 nM. The Ki (Ox receptor [1]) was 234 nM, the “Selectivity Ox/I2” value (Ox receptor [1]) was 3 and the Ki (I2-receptor [2]) was 686 nM.
For C1CCC(C(NC2=NCCO2)C2CCCCC2)CC1 [Compound O503], the Ki (I2-receptor [3]) was 3800 nM, the “Selectivity Ox/I2” value (Ox receptor [4]) was 32 and the “Selectivity Ox/α2” value (Ox receptor [4]) was 5.5. The Ki (Ox receptor [4]; rat brain homogenates, Table 3) was 117 nM, the Ki (Ox receptor [4]; rat brain homogenates, Table 4) was 117 nM and the Ki (α2-adrenoceptor) was 640 nM. The Ki (Ox receptor [1]) was 70 nM, the “Selectivity Ox/I2” value (Ox receptor [1]) was 69 and the Ki (I2-receptor [2]) was 4800 nM.
With Oc1ccc(CCNC2=NCCO2)cc1 [Compound O508, 2-(4-hydroxyphenyl)ethylaminooxazoline] the “Selectivity Ox/apha2” value (Ox receptor [5]) was 100.
CC(CNC1=NCCO1)c1ccc(OCc2ccccc2)cc1 (stereo not shown) [Compound O509, 2-(4-benzyloxyphenyl)propylaminooxazoline] was tested, and the “Selectivity Ox/apha2” value (Ox receptor [5]) was 2.0.
In the case of c1ccc2c(c1)OCC(C1=NCCN1)O2 (stereo not shown) [Idazoxan, 2-(1,4-benzodioxan)-imidazoline], the “affinity for the I2-receptor (in words)” value (I2-receptor [3]) is reported as “high affinity (nM)”, the Ki (I2-receptor [3]) is reported as 2.3 nM and the “affinity for the Ox receptor (in words)” value (Ox receptor [4]) is reported as “poor (μM) affinity”. For the same compound, the “Selectivity Ox/I2” value (Ox receptor [4]; [6]) was 0.00004, the “Selectivity Ox/α2” value (Ox receptor [4]; [6]) was 0.0003 and the Ki (Ox receptor [4]; rat brain homogenates, Table 3) was 62300 nM. The Ki (Ox receptor [4]; rat brain homogenates, Table 4) was 62300 nM, the “affinity for the α2-adrenoceptor (in words)” value (α2-adrenoceptor) was “high affinity (nM)” and the Ki (α2-adrenoceptor) was 15.6 nM. The Ki (Ox receptor [1]) was 6060 nM, the “Selectivity Ox/I2” value (Ox receptor [1]) was 0.0008 and the Ki (I2-receptor [2]) was 4.8 nM.
With COC1(C2=NCCN2)COc2ccccc2O1 (stereo not shown) [Methoxyidazoxan, 2-(2-methoxy-1,4-benzodioxan)-imidazoline)] the “affinity for the I2-receptor (in words)” value (I2-receptor [3]) was “poor affinity (μM)”, the Ki (I2-receptor [3]) was 24400 nM and the “Selectivity Ox/I2” value (Ox receptor [4]) was 0.08. For the same compound, the “affinity for the Ox receptor (in words)” value (Ox receptor [4]) was “poor affinity (μM)”, the Ki (Ox receptor [4]; rat brain homogenates, Table 3) was 319000 nM and the Ki (Ox receptor [4]; rat brain homogenates, Table 4) was 319000 nM. For the same compound, the “affinity for the α2-adrenoceptor (in words)” value (α2-adrenoceptor) was “high affinity (nM)”, the Ki (α2-adrenoceptor) was 1.9 nM and the Ki (Ox receptor [1]) was 100000 nM. For the same compound, the “Selectivity Ox/I2” value (Ox receptor [1]) was 1 and the Ki (I2-receptor [2]) was > 100000 nM.
For C1COC(NC(C2CC2)C2CC2)=N1 [Rilmenidine], the “affinity for the I2-receptor (in words)” value (I2-receptor [3]) was “high affinity (nM)”, the Ki (I2-receptor [3]) was 36 nM and the “affinity for the Ox receptor (in words)” value (Ox receptor [4]) was “high affinity (nM)”. For the same compound, the “Selectivity Ox/I2” value (Ox receptor [4]; [6]) was 2.4, the “Selectivity Ox/α2” value (Ox receptor [4]; [6]) was 27 and the Ki (Ox receptor [4]; rat brain homogenates, Table 3) was 15 nM. The Ki (Ox receptor [4]; rat brain homogenates, Table 4) was 15 nM, the Ki (α2-adrenoceptor) was 410 nM and the Ki (Ox receptor [1]) was 396 nM. For the same compound, the “Selectivity Ox/I2” value (Ox receptor [1]) was 13, the “affinity for the Ox receptor (in words)” value (Ox receptor [1]; [7]) was “lower affinity” and the Ki (I2-receptor [2]) was 5220 nM. The “affinity for the I2-receptor (in words)” value (I2-receptor [2]; [7]) was “lower affinity”.
